Drawing on US6562793B2, “Antiallergic agent” (We'll Corporation, priority 2000, dated 2003), this text covers solubility in water and Inhibition rate for one compound.

A short description of data set [1]: Solubility in water. The class given is physicochemical.
Data set [2] deals with mast cells from the rat abdominal cavity. As to the kind of experiment: Inhibition of histamine release from mast cells from a rat abdominal cavity. It counts as cell-based. The conditions noted are these: Releaser: Compound 48/80. The method, then: A mast cell suspension is collected from a rat abdominal cavity. The suspension is treated with a sample adjusted to 1 to 0.01% (specimen) and to the mixture is added a histamine releasing agent. Inhibition of this release is observed to determine an activity value. […]
A solution of sample adjusted to a concentration of 0.01 to 0.003% in Tyrode's solution containing phosphatidyl-L-serine (PS) (1.75 mL) was preincubated at 37° C. for 5 min. To the solution was added 0.05 mL of the mast cell suspension from the rat abdominal cavity and the mixture was preincubated for further 15 min. […] A control was prepared as described above except that 1.75 mL of Tyrode's solution containing PS was used in place of 1.75 mL of the sample solution in Tyrode's solution containing PS and 0.2 mL of […] PS. After quenching the reaction by ice cooling, the mixture was centrifuged at 300×g and 4° C. for 10 min. The amounts of histamine were determined for the supernatant and the sediment, respectively, according to the method of Shore et al. to calculate an inhibition rate to histamine release.
Calculation equation for a histamine release rate [formula]
PS=Amount of histamine in the supernatant
PR=Amount of histamine remaining in the cells
Calculation equation for a release inhibition rate [formula]
S=Release rate of the sample
C=Release rate of the control […]

Consider `O=c1c(O[C@@H]2OC(CO[C@@H]3OC(CO)[C@@H](O)C(O)C3O)[C@@H](O)C(O)C2O)c(-c2ccc(O)cc2)oc2cc(O)cc(O)c12` (stereo partly drawn) [kaempferol 3-0 [β-D-glucopyranosyl-(1→6)-β-D-glucopyranoside]], for which the solubility in water result in data set [1] is on record as “freely soluble”. Further, the Inhibition rate in data set [2] (concentration 3 × 10^−5 g/mL) worked out at 28.5%; in data set [2] (concentration 9 × 10^−5 g/mL), 98.4%.
